How the values were obtained:
[1] = target: T1, COX2 (Homo sapiens, UniProt P35354); experiment: COX2 enzyme activity in cell lysate of COX2-myc transfected HEK293T cells; assay type: biochemical
T1 construct: myc; expressed in transfected cells; host or cells: HEK293T
T1 sequence (P35354 18-604): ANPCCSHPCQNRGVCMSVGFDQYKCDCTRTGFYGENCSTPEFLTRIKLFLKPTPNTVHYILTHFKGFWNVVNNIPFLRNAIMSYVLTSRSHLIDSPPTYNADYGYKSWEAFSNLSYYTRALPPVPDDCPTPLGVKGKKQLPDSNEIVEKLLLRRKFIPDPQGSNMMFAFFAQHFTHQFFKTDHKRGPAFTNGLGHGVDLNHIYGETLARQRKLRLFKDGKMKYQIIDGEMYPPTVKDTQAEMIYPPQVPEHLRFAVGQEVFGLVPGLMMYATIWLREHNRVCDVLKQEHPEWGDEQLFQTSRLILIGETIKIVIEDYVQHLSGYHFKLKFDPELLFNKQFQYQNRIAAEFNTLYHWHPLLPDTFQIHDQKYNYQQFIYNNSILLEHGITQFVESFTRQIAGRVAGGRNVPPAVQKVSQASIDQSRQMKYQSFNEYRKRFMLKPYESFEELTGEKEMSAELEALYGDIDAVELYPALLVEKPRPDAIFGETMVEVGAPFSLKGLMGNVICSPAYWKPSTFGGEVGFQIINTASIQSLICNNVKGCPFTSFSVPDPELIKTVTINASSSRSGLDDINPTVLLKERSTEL
Method: COX2 enzymatic assay. […] COX2 enzymatic activity was measured with a COX assay kit (Cayman Biochemical Inc, Ann Arbor, Mich.) according to the manufacturer's instructions.
To determine whether S-nitrosylation of COX2 alters enzyme activity, we examined COX2 enzyme activity in HEK293T cells transfected with COX2-myc.

[2] = target: T1, COX2; experiment: S-nitrosylation of COX2 (biotin switch assay) in HEK293T cells transfected with COX2-myc; assay type: cell-based; conditions: for S-nitrosylation of COX2 by NO donors and H2O2: HEK293T cells transfected with COX2-myc, biotin switch, GSNO 100 μM, SNP 100 μM, Spermine-NO 100 μM, DETA-NO 500 μM
Description: Plasmid Constructions. Full length human cyclooxygenase2-encoding gene (gene bank sequence NM_000963) was purchased from ATCC in pCMV•SPORT6 vector. The sequence was amplified by PCR using primers harboring Sal1/Not1 restriction sites and cloned into the pCMV-Myc vector (Clontech, Palo Alto, Calif.). The murine inducible nitric oxide synthase (accession number NM_010927) cloned into the pcDNA3.1+vector (Invitrogen, Carlsbad, Calif.).
(§1) S-nitrosylation assay. Cells were homogenized by 26G needle in HEN ([…] Hepes-NaOH pH 7.7, 1 mM EDTA, 0.1 mM Neocuproine) buffer and then centrifuged at 1000 g for 10 min at 4° C. Cells lysates (240 μg) was added 4 vol of blocking buffer (9 vol of HEN buffer plus 1 vol 25% SDS, adjusted to 20 mM MMTS with a 2 M stock prepared in dimethylformamide (DMF)) at 50° C. for 20 min with frequent vortexing. The MMTS was then removed by desalting three times with the MicroBioSpin6 column (Bio-Rad, Hercules, Calif.) pre-equilibrated in HEN buffer. To the eluate was added biotin-HPDP prepared fresh as a 4 mM stock in DMSO from a 50 mM stock suspension in DMF. Sodium ascorbate was added to a final concentration of 1 mM. After incubation for 1 h at 25° C., biotinylated proteins were precipitated by streptavidin-agarose beads. The streptavidin-agarose was then pelleted and washed 5 times using HENS buffer. The biotinylated proteins were eluted by SDS-PAGE sample buffer and subjected to Western-blot analysis.

[3] = system: RAW264.7 cells; experiment: PGE2 formation in RAW264.7 cells in response to LPS/IFNγ (PGE2 ELISA); assay type: cell-based, murine; conditions: for PGE2 formation in response to LPS/IFNγ: 1400W various concentrations overnight, L-NAME 500 μM, D-NAME 500 μM
Method: Measurement of PGE2. Cells were washed with worm PBS (×2) and incubated in the phenol free Dulbecco's modified Eagle's medium supplemented with 20 μM arachidonic acid and 3% albumin for 20 min. Media was collected and PGE2 production was measured with a PGE2 ELISA kit from Assay Design (Ann Arbor, Mich.) according to the manufacturer's instructions.

[4] = system: COX2; experiment: S-nitrosylation of COX2 in RAW264.7 cells treated with LPS/IFNγ (biotin switch and fluorometric detection); assay type: cell-based, murine; conditions: 1400W 100 μM, fragment transfected
Method: as §1
Fluorometric detection of S-nitrosothiols. The methods were modified according to Cook et al.(2) RAW264.7 cells were treated with LPS/IFNγ for overnight and COX2 was immunoprecipitated by donkey anti-rat COX2 antibodies. After that the samples were reacted with 100 μM 2,3-diaminonaphthalene (DAN) in the presence of 100 μM of HgCl2 and incubated in darkness for 30 min at room temperature. The generated fluorescent compound 2,3-napththyltrazole (NAT) was then measured at an excitation wavelength of 375 nm and an emission wavelength of 450 nm.

[5] = target: T2, iNOS and COX2 binding (Mus musculus, UniProt P29477+Q05769); experiment: Co-immunoprecipitation of iNOS and COX2 in LPS/IFNγ-induced RAW264.7 cells; assay type: cell-based, murine
T2 construct: endogenous in cells; host or cells: RAW264.7 murine macrophages induced with LPS/IFNγ

[6] = system: RAW264.7 cells; experiment: Confocal immunofluorescence of endogenous PGE2 in RAW264.7 cells transfected with COX2-myc fragments; assay type: cell-based, murine; conditions: RAW264.7 cells activated by LPS/IFNγ
Method: Immunohistochemistry. RAW264.7 cells were transfected with deletion constructs of COX2. Cells were fixed in 4% paraformaldehyde in PBS for 5 min, permeablized in 0.1% Triton X-100 for 10 s, and then rinsed twice in PBS. Coverslips were then blocked in 10% goat serum at room temperature for 1 h and incubated with PGE2 (Cayman Biochemical Inc, Ann Arbor, Mich.) and myc antibodies for 24 hr at 4° C. Rhodamine or fluorescein-conjugated secondary antibodies (Jackson Immunochemicals, West Grove, Pa.) were then added at 10 μg/ml for 1 hr at room temperature as indicated. Coverslips were mounted in ProLong (Molecular Probes, Eugene, Oreg.). Confocal microscopy, in which the immunofluorescent staining is superimposed on phase contrast images, employed a Noran OZ (Noran Instruments, Middleton, Wis.) confocal laser-scanning system, fitted to an Olympus IX-50 fluorescence microscope.

**Q.** With `O=C1O[C@H]([C@@H](O)CO)C(O)=C1O` [ascorbic acid] as the molecule, how does the “Increase of COX2 activity by SNP” value ([1]; SNP 200 μM plus ascorbate 500 μM) read?
**A.** Its value is “prevents the increase”.

**Q.** And the “COX2 activity in preparations not treated by SNP” value ([1]; ascorbate 500 μM, no SNP)?
**A.** Its value is “fails to affect”.

**Q.** And the “S-nitrosylation of COX2-myc in the presence of SNP” value ([2]; SNP 200 μM, ASC 500 μM)?
**A.** Its value is “reversed”.

**Q.** How did the “Effects of L-NAME on PGE2 formation” value ([3]; RAW264.7 cells, LPS/IFNγ, L-NAME 500 μM + L-Arg 1 mM) turn out when `N=C(N)NCCC[C@H](N)C(=O)O` [L-arginine] was run?
**A.** The value was “reversed”.

**Q.** With `COC(=O)[C@H](N)CCCN=C(N)N[N+](=O)[O-]` [D-NAME] as the molecule, how does the “PGE2 formation in response to LPS/IFNγ” value ([3]; RAW264.7 cells) read?
**A.** Its value is “not”.

**Q.** For `N[C@@H](CCC(=O)N[C@@H](CSN=O)C(=O)NCC(=O)O)C(=O)O` [GSNO, nitrosoglutathione], which “S-nitrosylation of COX2 by NO donors and H2O2” value [2] is on record?
**A.** The value was “elicit S-nitrosylation”.

**Q.** With `NCCCNCCCCN(CCCN)/[N+]([O-])=N/O` [spermine-NO] as the molecule, how does the “S-nitrosylation of COX2 by NO donors and H2O2” value [2] read?
**A.** Its value is “elicit S-nitrosylation”.

**Q.** How did the “S-nitrosylation of COX2 by NO donors and H2O2” value [2] turn out when `NCCN(CCN)/[N+]([O-])=N/O` [DETA-NONOate] was run?
**A.** The value was “elicit S-nitrosylation”.

**Q.** “hemoglobin: sequesters freely diffusible NO” was tested. Which “S-nitrosylation of COX2” value [4] did it give?
**A.** The value was “fails to alter”.

**Q.** How did the “S-nitrosylation of COX2 by NO donors and H2O2” value [2] turn out when `OO` [H2O2] was run?
**A.** Its value is “does not elicit S-nitrosylation”.

**Q.** With `COC(=O)[C@@H](N)CCCNC(=N)N[N+](=O)[O-]` [L-NAME, nitro-argininemethylester] as the molecule, how does the “PGE2 formation in response to LPS/IFNγ” value ([3]; RAW264.7 cells) read?
**A.** Its value is “inhibition of PGE2 formation”.

**Q.** Which results are given for `CC(=N)NCc1cccc(CN)c1` [1400W]?
**A.** PGE2 formation in response to LPS/IFNγ ([3]; RAW264.7 cells): inhibited; S-nitrosylation of COX2 [4]: prevented; Co-precipitation of iNOS and COX2 ([5]; RAW264.7 cells induced by LPS/IFNγ, inhibitor 100 μM, immunoprecipitation with anti-iNOS or anti-COX2 antibodies): unaffected

B1: 1-483: myc-tagged fragment of COX2 comprising amino acids 1-483, which does not bind iNOS (protein)
chain: ANPCCSHPCQNRGVCMSVGFDQYKCDCTRTGFYGENCSTPEFLTRIKLFLKPTPNTVHYILTHFKGFWNVVNNIPFLRNAIMSYVLTSRSHLIDSPPTYNADYGYKSWEAFSNLSYYTRALPPVPDDCPTPLGVKGKKQLPDSNEIVEKLLLRRKFIPDPQGSNMMFAFFAQHFTHQFFKTDHKRGPAFTNGLGHGVDLNHIYGETLARQRKLRLFKDGKMKYQIIDGEMYPPTVKDTQAEMIYPPQVPEHLRFAVGQEVFGLVPGLMMYATIWLREHNRVCDVLKQEHPEWGDEQLFQTSRLILIGETIKIVIEDYVQHLSGYHFKLKFDPELLFNKQFQYQNRIAAEFNTLYHWHPLLPDTFQIHDQKYNYQQFIYNNSILLEHGITQFVESFTRQIAGRVAGGRNVPPAVQKVSQASIDQSRQMKYQSFNEYRKRFMLKPYESFEELTGEKEMSAELEALYGD
**Q.** B1 was tested. Which “Influence on PGE2 formation” value ([3]; fragment transfected into RAW264.7 cells, LPS/IFNγ) did it give?
**A.** The value was “fails to influence”.

**Q.** And the “PGE2 expression level in transfected cell compared to non-transfected cell (immunofluorescent staining)” value [6]?
**A.** The value was “does not show a reduction”.

B2: 484-604: dominant-negative myc-tagged fragment of COX2, amino acids 484-604, which binds iNOS (protein)
chain: IDAVELYPALLVEKPRPDAIFGETMVEVGAPFSLKGLMGNVICSPAYWKPSTFGGEVGFQIINTASIQSLICNNVKGCPFTSFSVPDPELIKTVTINASSSRSGLDDINPTVLLKERSTEL
**Q.** What does the source list for B2?
**A.** Reduction of PGE2 formation ([3]; dominant-negative fragment transfected into RAW264.7 cells, LPS/IFNγ): more than 50%; S-nitrosylation of COX2 [4]: decreases; PGE2 expression level in transfected cell compared to non-transfected cell (immunofluorescent staining) [6]: reduction; Co-precipitation of iNOS and COX2 ([5]; fragment transfected into RAW264.7 cells, LPS/IFNγ, immunoprecipitation with anti-iNOS): abolishes

Reference: US7358237B2, “Inducible nitric oxide synthase binds, S-nitrosylates, and activates cyclooxygenase-2” (The Johns Hopkins University, priority 2005, dated 2008)
